Values quoted from earlier work, collected in US6946461B2, “Imidazolophthalazine derivatives as ligands for GABAA receptors” (Merck Sharp & Dohme Ltd., priority 2000, dated 2005).

Columns and labels:
spatial learning = settings: reported by McNamara and Skelton
[1] = in vivo

COC(=O)c1cc2c(cn1)[nH]c1ccccc12 [β-CCM]
spatial learning in the Morris watermaze (spatial learning): enhanced spatial learning
proconvulsant effect [1]: proconvulsant
